Biological target: 5-hydroxytryptamine receptor 1D (Bos taurus)
Assay: Affinity pKi for 5-hydroxytryptamine 1D receptor was measured in calf caudate homogenate

Q: CCOC(=O)c1[nH]c2ccc(CCN3C(=O)CNC3=O)cc2c1CCN(C)C was tested. Which Ki did it give?
A: 10 µM

— BindingDB's records for doi:10.1021/jm9605849 (Monash University, 1997)
